Literature values in patent publication US8642030B2, “Compositions containing coenzyme Q-10 and dihydrolipoic acid” (EPC Europe GmbH, priority 2006, dated 2014).

Settings: cited from earlier work

**Q.** For `COC1=C(OC)C(=O)C(C/C=C(\C)CC/C=C(\C)CC/C=C(\C)CC/C=C(\C)CC/C=C(\C)CC/C=C(\C)CC/C=C(\C)CC/C=C(\C)CC/C=C(\C)CCC=C(C)C)=C(C)C1=O` [CoQ-10], which “solubility in most hydrophilic solvents such as water” value is on record?
**A.** sparingly soluble
